Columns and labels:
[1] = tested on: alkaline protease from Bacillus sp. PS719; conditions: cited from earlier work
[2] = tested on: obese (NZO×NON)F1 male mice; conditions: chronic treatment; cited from earlier work
[3] = molecular target: antibodies specific for the respective peptide antigens; conditions: antibody against the listed peptide; value taken from the reference; read-out: Affinity KD; cited from earlier work
[4] = tested on: antibody P1 (specific for PSA-derived PET EPAELTDA); assay: Peptide competition assay, antibody P1; format: binding; conditions: for fold higher concentration at which nearest neighbor is still ineffective: relative to antigen PET EPAELTDA
Description: (§1) In certain embodiments of the invention, a peptide competition assay may be used to determine the binding specificity of a capture agent towards its target PET, as compared to several nearest neighbor sequences of the PET. The same protocol can be adapted for small molecule-based competition assay
(§2) For a typical peptide competition assay, the following illustrative protocol may be used: 1 μg/100 μl/well of each target peptide is coated in Maxisorb Plates with coating buffer (carbonate buffer, pH 9.6) overnight at 4° C., or 1 hour at room temperature. The plates are washed with 300 μl of PBST (1×PBS/0.05% Tween 20) for 4 times. Then 300 μl of blocking buffer (2% BSA/PBST) is added and the plates are incubated for 1 hour at room temperature. Following blocking, the plates are washed with 300 μl of PBST for 4 times.
Synthesized competition peptides are dissolved in water to a final concentration of 2 mM solution. Serial dilution of competition peptides (for example, from 100 pM to 100 μM) in digested human serum are prepared. These competition peptides at particular concentrations are then mixed with equal amounts of primary antibodies against the target peptide. These mixtures are then added to plate wells with immobilized target peptides respectively. Binding is allowed to proceed for 2 hours at room temperature. The plates are washed with 300 μl of PBST for 4 times. Then labeled secondary antibody against the primary antibody, such as 100 μl of 5,000× diluted anti-rabbit-IgG-HRP, is added and incubated for 1 more hour at room temperature. The plates are washed with 300 μl of PBST for 6 times. For detection of the HRP label activity, add 100 μl of TMB substrate (for HRP) and incubate for 15 minutes at room temperature. Add 100 μl of stop buffer (2N HCL) and read the plates at OD450. A peptide competition curve is plotted using the ABS at OD450 versus the competitor peptide concentrations. […]

[5] = tested on: antibody C1 (specific for CRP-derived PET YEVQGEVF); assay: Peptide competition assay, antibody C1; format: binding; conditions: competitor peptide against immobilized PET, neighbors completely ineffective even at the stated concentration, read-out: half-maximum effective peptide concentration
Description: as §1, §2
Synthesized competition peptides are dissolved in water to a final concentration of 2 mM solution. Serial dilution of competition peptides (for example, from 100 pM to 100 μM) in digested human serum are prepared. These competition peptides at particular concentrations are then mixed with equal amounts of primary antibodies against the target peptide. These mixtures are then added to plate wells with immobilized target peptides respectively. Binding is allowed to proceed for 2 hours at room temperature. […] Add 100 μl of stop buffer (2N HCL) and read the plates at OD450. […]

[6] = molecular target: antibody C1, specific for the CRP-derived 8-mer PET sequence YEVQGEVF; assay: peptide competition ELISA: soluble peptide series against the same immobilized peptide for a fixed concentration of antibody, in 10 mM digested serum proteins, HRP secondary antibody, ABS 450
[7] = molecular target: antibody C1, specific for the CRP-derived 8-mer PET sequence YEVQGEVF; assay: peptide competition assay, soluble PET against immobilized PET for antibody C1
[8] = molecular target: antibody C2, specific for the CRP PET sequence GYSIFSYA; assay: peptide competition ELISA: soluble peptide series against the same immobilized peptide for a fixed concentration of antibody, in 10 mM digested serum proteins, HRP secondary antibody, ABS 450
[9] = molecular target: antibody used in the PET-based peptide competition assay for the Survivin peptide …; assay: Survivin Peptide Competitive Assay, ABS 450
[10] = molecular target: PET-specific antibody used in the peptide competition assay for the Troponin T peptide …; assay: peptide competition ELISA with immobilized peptide, in 10mM digested serum proteins, ABS 450
[11] = liberation of p-nitroaniline from the substrate

For `O=c1oc(Cl)c(Cl)c2ccccc12` [DCI, 3,4-dichloroisocoumarin], the “inhibition of protease activity” value [1] is given as “completely inhibited”.

For `O=S(=O)(F)Cc1ccccc1` [PMSF, phenylmethylsulfonyl fluoride], the “inhibition of protease activity” value [1] is given as “completely inhibited”.

For `Cc1ccc(S(=O)(=O)N[C@@H](CCCCN)C(=O)CCl)cc1` [TLCK, N-α-p-tosyl-L-lysine chloromethyl ketone], the “inhibition of protease activity” value [1] is given as “completely inhibited”.

For `CN(CCOc1ccc(CC2SC(=O)NC2=O)cc1)c1ccccn1` (stereo not drawn) [rosiglitazone], the “effect on hepatic steatosis” value [2] is listed as “markedly exacerbated”.

In the case of CRGTGSYNRSSFESSSG, the Kd [3] is listed as 2.8 nM.

With “DPTQLTDA [nearest-neighbor 8-mer of EPAELTDA found in the human proteome]” the “fold higher concentration at which nearest neighbor is still ineffective” value [4] was 25,000 fold.

In the case of EPAELTDA, the IC50 ([4]; competitor peptide against immobilized PET, read-out: half-maximum effective peptide concentration) is reported as about 40 nM.

In the case of “EPVELTSA [nearest-neighbor 8-mer of EPAELTDA found in the human proteome]”, the “fold higher concentration at which nearest neighbor is still ineffective” value [4] is reported as 25,000 fold.

In the case of GATPEDLNQKLAGN, the Kd [3] is given as 1.4 nM.

In the case of “HHHHH [HHHHH (HIS tag), 5-aa HIS tag peptide]”, the Kd [3] is listed as 25 nM.

For “MDYKAFDN (FLAG tag) [8-aa FLAG tag peptide]”, the Kd [3] is listed as 2.3 nM.

In the case of “N-carbobenzoxy (CBZ)-L-arginine-p-nitroanilide”, the Km [1, 11] is listed as 600 µM and the Vmax [1, 11] is listed as 1.0 μmol min^−1 mg protein^−1.

For “NYRAYATEPHAKKKS [15-aa peptide antigen of a literature antibody (EJB 267:1819, 2000)]”, the Kd [3] is given as 0.5 nM.

For PQSDPSVEPPLS, the Kd [3] is given as 16 nM.

For “RYDIEAKVTK [10-aa peptide antigen of a literature antibody (JI 169:6992, 2002)]”, the Kd [3] is given as 3.5 nM.

In the case of YDVPDYAS (HA tag), the Kd [3] is given as 2 nM.

YEVQGEVF gave an IC50 [5] of about 1000 nM.

For YEVQGEVF [CRP-derived 8-mer PET peptide YEVQGEVF], the Detection Limit [6] was 100 pM and the IC50 [7] was 1000 nM.

With GYSIFSYA [CRP PET peptide GYSIFSYA] the Detection Limit [8] was 1 nM and the IC50 (read off the curve) [8] was 1000 nM.

Molecule MGAPTLPPAWQPF [Survivin peptide …] has an IC50 (read off the curve) [9] of 20 nM.

For SFMPNLVPPK [Troponin T tryptic PET-peptide …], the IC50 (read off the curve) [10] was 20 nM.

Reference: patent publication US20050255491A1, “Small molecule and peptide arrays and uses thereof” (priority 2003, published 2005)
